2 molecules from patent US20200338039A1, “METHODS AND MATERIALS FOR ASSESSING BIOLOGICAL AGE AND SLOWING THE PROGRESS OF EXCESSIVE BIOLOGICAL AGING” (The Scripps Research Institute, priority 2017, published 2020) can be followed below.

The test system of experiment [1] is C57BL/6J mice. Put plainly: Composite lesion scores (geropathology grading, histology) in old mice on rapamycin diet. The settings on record: two year-old C57BL/6J mice; rapamycin diet 14 ppm females / 42 ppm males for two months; average. Type of experiment: in vivo, mouse. The source says:
Two year-old C57BL/6J mice were fed a diet containing rapamycin (14 ppm for females or 42 ppm for males) or a control diet for two months. […] In addition, rapamycin attenuated composite lesion scores in kidneys (FIG. 7), liver, and lungs of these mice by an average of 40, 41, and 29 percent, respectively.
Two year old C57BL/6J mice were obtained from the NIA Rodent Colony and treated with encapsulated rapamycin (Rapamycin Holdings, San Antonio Tex.) at 14 ppm for females and 42 ppm for males, or control (encapsulated only) diet for 8 weeks. Mice were sacrificed at 26 months and serum collected preceding necropsy. Ercc1^−/Δ mice were treated with Dasatinib and Quercetin as described elsewhere (see, e.g., Zhu et al., 2015 Aging cell. 14(4):644-658). Briefly, Ercc1^−/Δ mice were treated weekly with a combination of Dasatinib (5 mg/kg) and Quercetin (50 mg/kg) starting at 4-6 weeks of age. Therapeutics were administered in 10% PEG400 by oral gavage. Litters with multiple Ercc1^−/Δ mice were used to enable comparison of sibling pairs that were treated with therapeutic vs vehicle only. Mice (n=5-6 per group) were sacrificed at 16 weeks and serum collected by cardiac puncture.
Mouse tissues were collected at necropsy and placed in 10% buffered formalin for 48 hours, transferred to 70% alcohol, and subsequently processed into paraffin blocks for sectioning and hematoxylin and eosin staining. Histology slides were validated for age-related lesions by a veterinary pathologist and scored for lesion severity to create a composite lesion score for age-related renal pathology in each animal (see, e.g., Ladiges 2016 Pathobiol Aging Age Relat Dis. 6:31478).

Experiment [2] has as its system mice, 85 weeks of age. Put plainly: Late-life fisetin diet in aged mice: lifespan, tissue function, histopathology. It is filed as in vivo, mouse. The conditions noted are these: diet containing 500 ppm fisetin from 85 weeks of age. Here is the method: At 85-weeks of age (>20 mth), male and female mice were administered a diet containing 500 ppm (500 mg/kg) fisetin or fed a control diet with no drug. n=8-9 mice per group. In the treatment group, median lifespan was increased 17% and maximum lifespan increased 12%. Log rank (Mantel-Cox) test. […] Levels of MCP-1 were measured in the serum of these mice by ELISA. n=5 mice per group. One-way ANOVA with Tukey's multiple comparison test. Values represented as the mean SEM, ***p<0.001, ****p<0.0001. Therefore, circulating levels of MCP-1 correlate with drug-induced improvements in health and lifespan (FIG. 12).

[3] abbreviates: male and female mice, vs control diet.

Consider `CO[C@H]1C[C@@H]2CC[C@@H](C)[C@@](O)(O2)C(=O)C(=O)N2CCCC[C@H]2C(=O)O[C@H]([C@H](C)C[C@@H]2CC[C@@H](O)[C@H](OC)C2)CC(=O)[C@H](C)/C=C(\C)[C@@H](O)[C@@H](OC)C(=O)[C@H](C)C[C@H](C)/C=C/C=C/C=C/1C` [rapamycin], for which, in experiment [1], the “attenuation of composite lesion score, kidneys” value is reported as 40%; the “attenuation of composite lesion score, liver” value came out at 41%; the “attenuation of composite lesion score, lungs” value is 29%.
Turning to `O=c1c(O)c(-c2ccc(O)c(O)c2)oc2cc(O)ccc12` [fisetin], in experiment [2], the age-related histopathology entry is “decreased in multiple organs” and the tissue function entry is listed as “improved”. In experiment [2] (setting [3]), the “increase in maximum lifespan” value is reported as 12% and the “increase in median lifespan” value was 17%.
